Reference: ChEMBL document CHEMBL5653631, “A Potent and Selective ULK1 Inhibitor Suppresses Autophagy and Sensitizes Cancer Cells to Nutrient Stress” (iScience, 2018)
Blank lines part the entries; values can stand above or below the compound they belong to.

What was measured:
[1] = target: T1, Serine/threonine-protein kinase tousled-like 1 (Homo sapiens) (UniProt Q9UKI8); experiment: Inhibition of human recombinant TLK1 at 500 nM in presence of ATP by radiometric assay relative to control
T1 sequence (whole entry): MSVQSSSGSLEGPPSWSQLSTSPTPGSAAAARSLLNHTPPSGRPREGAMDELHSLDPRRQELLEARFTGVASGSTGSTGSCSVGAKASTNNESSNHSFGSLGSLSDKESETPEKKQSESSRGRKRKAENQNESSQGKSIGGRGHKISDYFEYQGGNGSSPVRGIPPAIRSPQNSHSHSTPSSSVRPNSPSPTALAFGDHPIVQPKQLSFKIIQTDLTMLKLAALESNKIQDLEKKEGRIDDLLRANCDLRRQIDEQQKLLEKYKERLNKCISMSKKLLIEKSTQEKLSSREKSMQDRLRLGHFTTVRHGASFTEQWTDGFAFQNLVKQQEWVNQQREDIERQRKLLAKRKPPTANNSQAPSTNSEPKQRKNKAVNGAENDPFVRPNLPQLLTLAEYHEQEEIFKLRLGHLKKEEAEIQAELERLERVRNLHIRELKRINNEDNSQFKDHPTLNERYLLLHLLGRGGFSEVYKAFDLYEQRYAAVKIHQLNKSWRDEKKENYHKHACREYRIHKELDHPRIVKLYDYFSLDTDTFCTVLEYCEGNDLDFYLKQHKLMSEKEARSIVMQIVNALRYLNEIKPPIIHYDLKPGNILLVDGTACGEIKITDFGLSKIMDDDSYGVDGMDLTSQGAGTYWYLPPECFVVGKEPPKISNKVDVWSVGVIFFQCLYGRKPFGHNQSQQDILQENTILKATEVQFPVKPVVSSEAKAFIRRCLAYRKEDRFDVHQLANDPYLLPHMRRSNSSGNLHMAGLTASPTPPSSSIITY

[2] = target: T2, Discoidin domain-containing receptor 2 (Homo sapiens) (UniProt Q16832); experiment: Inhibition of human recombinant DDR2 at 15 nM in presence of ATP by radiometric assay relative to control
T2 sequence (whole entry): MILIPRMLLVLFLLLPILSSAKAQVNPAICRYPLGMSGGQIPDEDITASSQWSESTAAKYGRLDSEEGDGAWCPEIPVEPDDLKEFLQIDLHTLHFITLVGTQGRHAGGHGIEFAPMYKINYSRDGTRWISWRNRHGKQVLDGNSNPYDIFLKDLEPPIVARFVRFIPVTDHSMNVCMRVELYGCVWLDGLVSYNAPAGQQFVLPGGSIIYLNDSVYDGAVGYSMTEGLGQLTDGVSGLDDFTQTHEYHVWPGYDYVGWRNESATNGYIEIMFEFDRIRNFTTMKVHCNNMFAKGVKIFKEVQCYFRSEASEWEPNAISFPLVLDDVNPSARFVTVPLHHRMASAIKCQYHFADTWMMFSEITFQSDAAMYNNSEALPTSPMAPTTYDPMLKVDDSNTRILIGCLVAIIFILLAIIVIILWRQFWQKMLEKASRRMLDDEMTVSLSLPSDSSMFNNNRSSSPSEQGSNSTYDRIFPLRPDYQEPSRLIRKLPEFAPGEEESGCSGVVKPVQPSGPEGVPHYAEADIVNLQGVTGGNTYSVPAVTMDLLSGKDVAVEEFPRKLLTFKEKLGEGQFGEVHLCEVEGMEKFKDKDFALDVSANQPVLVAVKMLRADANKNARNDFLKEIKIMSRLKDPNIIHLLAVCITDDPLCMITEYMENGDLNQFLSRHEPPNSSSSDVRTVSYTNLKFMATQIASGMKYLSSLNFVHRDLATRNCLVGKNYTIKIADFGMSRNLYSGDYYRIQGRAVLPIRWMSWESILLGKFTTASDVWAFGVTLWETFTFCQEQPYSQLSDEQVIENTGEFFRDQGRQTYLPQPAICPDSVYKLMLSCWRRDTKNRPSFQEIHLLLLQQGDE

[3] = target: T3, Mitogen-activated protein kinase kinase kinase 5 (Homo sapiens) (UniProt Q99683); experiment: Inhibition of human recombinant MAP3K5 at 40 nM related to control ULK1
T3 sequence (whole entry): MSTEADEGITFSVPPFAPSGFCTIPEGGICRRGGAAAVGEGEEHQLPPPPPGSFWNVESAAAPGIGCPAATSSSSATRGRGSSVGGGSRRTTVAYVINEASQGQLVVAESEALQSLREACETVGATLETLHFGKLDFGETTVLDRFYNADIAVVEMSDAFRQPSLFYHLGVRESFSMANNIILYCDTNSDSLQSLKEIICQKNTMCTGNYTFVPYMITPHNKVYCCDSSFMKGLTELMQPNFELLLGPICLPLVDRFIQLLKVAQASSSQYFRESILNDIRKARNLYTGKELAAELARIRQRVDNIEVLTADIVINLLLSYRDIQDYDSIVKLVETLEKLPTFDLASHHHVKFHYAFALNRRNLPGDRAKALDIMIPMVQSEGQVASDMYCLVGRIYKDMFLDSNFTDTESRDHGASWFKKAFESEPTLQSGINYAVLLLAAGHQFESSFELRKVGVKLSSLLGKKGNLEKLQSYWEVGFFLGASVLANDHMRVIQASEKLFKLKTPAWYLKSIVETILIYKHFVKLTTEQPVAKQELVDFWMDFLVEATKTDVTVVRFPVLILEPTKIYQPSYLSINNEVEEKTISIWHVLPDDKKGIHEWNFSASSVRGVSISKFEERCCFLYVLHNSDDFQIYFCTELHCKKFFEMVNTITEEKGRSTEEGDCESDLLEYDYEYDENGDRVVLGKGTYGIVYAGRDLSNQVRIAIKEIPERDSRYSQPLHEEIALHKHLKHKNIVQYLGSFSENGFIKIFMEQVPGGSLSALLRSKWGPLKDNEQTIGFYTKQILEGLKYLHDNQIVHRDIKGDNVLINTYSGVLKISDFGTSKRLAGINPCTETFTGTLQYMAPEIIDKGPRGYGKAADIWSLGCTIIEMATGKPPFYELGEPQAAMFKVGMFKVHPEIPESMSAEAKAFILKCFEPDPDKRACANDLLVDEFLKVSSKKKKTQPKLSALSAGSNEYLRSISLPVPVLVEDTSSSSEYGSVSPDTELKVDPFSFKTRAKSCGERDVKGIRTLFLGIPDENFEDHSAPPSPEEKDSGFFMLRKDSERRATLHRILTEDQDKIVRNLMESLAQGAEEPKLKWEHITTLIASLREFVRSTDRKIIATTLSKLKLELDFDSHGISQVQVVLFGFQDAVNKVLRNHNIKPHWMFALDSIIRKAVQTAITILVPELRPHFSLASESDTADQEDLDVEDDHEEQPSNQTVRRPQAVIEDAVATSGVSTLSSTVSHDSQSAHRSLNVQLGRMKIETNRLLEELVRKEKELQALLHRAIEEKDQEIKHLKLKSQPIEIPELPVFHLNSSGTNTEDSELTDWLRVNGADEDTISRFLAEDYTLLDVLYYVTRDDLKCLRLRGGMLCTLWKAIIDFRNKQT

[4] = target: MAP kinase-activated protein kinase 2 (Homo sapiens) (UniProt P49137); experiment: Inhibition of human recombinant MAPKAPK2 at 40 nM related to control ULK1
Sequence of MAP kinase-activated protein kinase 2 (Homo sapiens) (P49137 whole entry, looked up): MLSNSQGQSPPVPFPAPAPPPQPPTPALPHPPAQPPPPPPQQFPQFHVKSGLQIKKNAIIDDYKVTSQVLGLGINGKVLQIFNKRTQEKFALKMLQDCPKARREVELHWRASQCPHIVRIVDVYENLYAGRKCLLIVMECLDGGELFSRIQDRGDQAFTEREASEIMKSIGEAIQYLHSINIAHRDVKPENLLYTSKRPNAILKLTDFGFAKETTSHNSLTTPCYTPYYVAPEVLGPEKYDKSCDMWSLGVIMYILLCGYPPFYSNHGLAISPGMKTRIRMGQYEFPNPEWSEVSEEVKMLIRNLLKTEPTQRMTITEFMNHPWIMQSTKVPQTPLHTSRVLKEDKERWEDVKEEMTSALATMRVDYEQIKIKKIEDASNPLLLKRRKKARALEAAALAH

inhibition [1]: 0%
Compound: CNC(=O)c1ccccc1Oc1nc(Nc2cc(OC)c(OC)c(OC)c2)ncc1Br

inhibition [2]: 0%
Compound: CC(C)[C@H](NC(=O)c1cc(-c2cnn3cc(-c4ccc(OCCN5CCCCC5)cc4)cnc23)cs1)C(F)(F)F

fold change (FC) [3]: 0 | fold change (FC) [4]: 0
Compound: O=C(N[C@@H](C1CC1)C(F)(F)F)c1cc(-c2cnn3cc(-c4ccc(F)cc4)cnc23)cs1
